Measured values reported in patent US20200223839A1, “FLUORO-CONTAINING COMPOUNDS, USE AND PREPARATION THEREOF” (JIANGSU YINGKEBEITA YIYAOKEJI CO. LTD, priority 2017, published 2020).

Experiments:
PC-3 = assay: Cytotoxicity assay by the CTG method, PC-3; assay type: cell-based; conditions: Homo sapiens, PC-3, Prostate cancer, 72 h
Description: (§1) The corresponding cells were harvested from flask into cell culture medium and the cell number were counted. The cells were diluted with culture medium to the desired density and 40 μL of cell suspension was added into each well of 384-well cell culture plate as designated. The plates were covered with lid and placed in room temperature for 30 minutes without shaking and then were transferred plates into 37° C. 5% CO2 incubator overnight for cell attachment.
(§2) Compound preparation and treatment: Test compounds were received or dissolved at 30 mM stock solution and control compound Staurosporine was stored as 10 mM and 1 mM concentration. 45 uL of stock solution was transferred to a 384 pp-plate. 3 fold, 10-point dilution were performed via transferring 15 uL compound into 30 μL DMSO by using TECAN (EVO200) liquid handler. The plates were spun at room temperature at 1,000 RPM for 1 minute and shaken at a plate shaker for 2 minutes. […]
(§3) The plate from incubators were placed and equilibrated at room temperature for 15 minutes. […] 40 μL of CellTiter-Glo reagent were transferred into each well to be detected (at 1:1 to culture medium). Then the plates were placed at room temperature for 30 min followed by reading on EnSpire.
(§4) The inhibition activity was calculated following the formula below: […]
(§5) The IC50 were calculated by fitting the Curve using Xlfit (v5.3.1.3): […]

OVCAR-3 = assay: Cytotoxicity assay by the CTG method, OVCAR-3; assay type: cell-based; conditions: Homo sapiens, OVCAR-3, Ovarian cancer, 72 h
Description: as §1, §2, §3, §4, §5

HT29 = assay: Cytotoxicity assay by the CTG method, HT29; assay type: cell-based; conditions: Homo sapiens, HT-29, HT29, Colon cancer, 72 h
Description: as §1, §2, §3, §4, §5

LNCaP = assay: Cytotoxicity assay by the CTG method, LNCaP; assay type: cell-based; conditions: Homo sapiens, Prostate cancer, 72 h
Description: as §1, §2, §3, §4, §5

[1] = tested on: MDA-MB-468 cells (human breast cancer) implanted in BALB/c-nu mice; assay: In vivo xenograft study, MDA-MB-468, tumor sizes; conditions: MDA-MB-468 xenograft in BALB/c-nu mice, FIGS. 2 and 4
Description: MDA-MB-468 cells (human breast cancer) in its log growth phase were implanted in BALB/c-nu mice. When the tumor volume was approximately 50-150 mm^3, the mice were randomized into four groups, each include 8 mice. The four groups were treated with vehicle, Ref. 1, 4f, and Ref. 2, respectively, and the tumor sizes were measured two to three times each week and the mice were also weighted.

MDA-MB-468 = assay: Cell culture and cytotoxicity assay (CTG), MDA-MB-468; assay type: cell-based, human
Description: The assayed compounds each was dissolved in DMSO with a final concentration of 10 mM or 40 mM and stored at −20° C. Tumor cell lines A549 (7,000 cells/well), BT474 (12,000 cells/well), MDA-MB-468 (12,000 cells/well), and HCC1937 (6,000 cells/well) were seeded on 96-well plates. And the cells were pre-incubated at 37° C./5% CO2 for 24 hours. The cells were exposed to different concentrations of the assay compounds (from 400 μM to 782 nM, from 200 μM to 391 nM, from 100 μM to 196 nM, and from 50 μM to 98 nM) for the following time:
After incubation, 100 μL from each well was discarded and CTG base (Proega, G7571, 50 μL) was added and the mixture was agitated for 2 minutes. The mixtures were stored in a dark room for 10 minutes and the viability was analyzed with Multiskan microplate reader.

A498 = assay: Cytotoxicity assay by the CTG method, A498; assay type: cell-based; conditions: Homo sapiens, A498, Kidney cancer, 72 h
Description: as §1, §2, §3, §4, §5

MV-4-11 = assay: Cytotoxicity assay by the CTG method, MV-4-11; assay type: cell-based; conditions: Homo sapiens, MV4-11, MV-4-11, Leukemia, 72 h
Description: as §1, §2, §3, §4, §5

MDA-MB-453 = assay: Cytotoxicity assay by the CTG method, MDA-MB-453; assay type: cell-based; conditions: Homo sapiens, MDA-MB-453, Breast cancer, 72 h
Description: as §1, §2, §3, §4, §5

A549 = assay: Cytotoxicity assay by the CTG method, A549; assay type: cell-based; conditions: Homo sapiens, A549, Lung cancer, 72 h
Description: as §1, §2, §3, §4, §5

ZR-75-1 = assay: Cytotoxicity assay by the CTG method, ZR-75-1; assay type: cell-based; conditions: Homo sapiens, ZR-75-1, Breast cancer, 72 h
Description: as §1, §2, §3, §4, §5

[2] = tested on: MDA-MB-453 cells (human breast cancer); assay: In vivo mouse model, MDA-MB-453, tumor sizes; conditions: MDA-MB-453 mouse model, similar dosage (for example, 100 mg/Kg), FIG. 6
Text: MDA-MB-453 cells (human breast cancer) were also studied in a mouse model. […] FIG. 7.

BT-474 = assay: Cytotoxicity assay by the CTG method, BT-474; assay type: cell-based; conditions: Homo sapiens, BT-474, Breast cancer, 72 h
Description: as §1, §2, §3, §4, §5

`Cc1ccc(S(=O)(=O)Nc2nc3ccccc3nc2Nc2ccc3nsnc3c2)cc1F` [Compound 4f, N-[3-(benzo[1,2,5]thiadiazol-5-ylamino)-quinoxalin-2-yl]-3-fluoro-4-methyl-benzenesulfonamide] showed an IC50 (PC-3) of 6.05 µM, an IC50 (OVCAR-3) of 6.68 µM and an IC50 (HT29) of 2.44 µM. The IC50 (LNCaP) was 3.2 µM, the “anticancer activity (tumor sizes) versus vehicle” value [1] was “significant anticancer activities” and the IC50 (MDA-MB-468; Homo sapiens, MDA-MB-468, exposure 72 hours, CTG) was 781 to 1560 nM. For the same compound, the “anticancer activity compared with known compounds (FIG. 1)” value (MDA-MB-468; MDA-MB-468 cytotoxicity, versus Ref. 1, Ref. 3, XL147-A, BEZ235) was “much better anticancer activity than any of the known compounds”, the IC50 (A498) was 3.68 µM and the IC50 (MV-4-11) was 6.8 µM. For the same compound, the IC50 (MDA-MB-453) was 1.5 µM, the IC50 (A549) was 8.33 µM and the IC50 (ZR-75-1) was 1.53 µM. The “anticancer activities (tumor sizes) compared with Ref. 2” value [2] was “better anticancer activities than Ref. 2” and the IC50 (BT-474) was 7.01 µM.
